We go through 8 compounds from ChEMBL document CHEMBL1155704, “Acetylated analogues of the microtubule-stabilizing agent discodermolide: preparation and biological activity” (J Nat Prod, 2001).

Some results are limits rather than exact numbers.

The IC50 is the concentration at which inhibition is half-maximal.

In this assay the test system is P388. In words: Cytotoxicity against mouse P388 cells after 48 hrs by MTT assay. It counts as functional, cell-based. The conditions noted are these: P388, 48 h.
Consider `C=C/C=C\[C@H](C)[C@H](OC(N)=O)[C@@H](C)[C@H](O)[C@@H](C)C/C(C)=C\[C@H](C)[C@@H](O)[C@@H](C)/C=C\[C@H](C[C@@H]1OC(=O)[C@H](C)[C@@H](O)[C@H]1C)OC(C)=O`, for which the IC50 amounted to 3.9 nM.
To `C=C/C=C\[C@H](C)[C@H](OC(N)=O)[C@@H](C)[C@H](O)[C@@H](C)C/C(C)=C\[C@H](C)[C@@H](OC(C)=O)[C@@H](C)/C=C\[C@H](C[C@@H]1OC(=O)[C@H](C)[C@@H](OC(C)=O)[C@H]1C)OC(C)=O` belongs 166 nM.
To `C=C/C=C\[C@H](C)[C@H](OC(N)=O)[C@@H](C)[C@H](O)[C@@H](C)C/C(C)=C\[C@H](C)[C@@H](O)[C@@H](C)/C=C\[C@@H](O)C[C@@H]1OC(=O)[C@H](C)[C@@H](OC(C)=O)[C@H]1C` belongs 12.6 nM; to `C=C/C=C\[C@H](C)[C@H](OC(N)=O)[C@@H](C)[C@H](O)[C@@H](C)C/C(C)=C\[C@H](C)[C@@H](O)[C@@H](C)/C=C\[C@H](C[C@@H]1OC(=O)[C@H](C)[C@@H](OC(C)=O)[C@H]1C)OC(C)=O`, 0.74 nM; to `C=C/C=C\[C@H](C)[C@H](OC(N)=O)[C@@H](C)[C@H](OC(C)=O)[C@@H](C)C/C(C)=C\[C@H](C)[C@@H](OC(C)=O)[C@@H](C)/C=C\[C@H](C[C@@H]1OC(=O)[C@H](C)[C@@H](OC(C)=O)[C@H]1C)OC(C)=O`, 837 nM.
The value for `C=C/C=C\[C@H](C)[C@H](OC(N)=O)[C@@H](C)[C@H](OC(C)=O)[C@@H](C)C/C(C)=C\[C@H](C)[C@@H](O)[C@@H](C)/C=C\[C@H](C[C@@H]1OC(=O)[C@H](C)[C@@H](OC(C)=O)[C@H]1C)OC(C)=O` was more than 6920 nM; that for `C=C/C=C\[C@H](C)[C@H](OC(N)=O)[C@@H](C)[C@H](O)[C@@H](C)C/C(C)=C\[C@H](C)[C@@H](OC(C)=O)[C@@H](C)/C=C\[C@@H](O)C[C@@H]1OC(=O)[C@H](C)[C@@H](OC(C)=O)[C@H]1C` was 103 nM; that for `C=C/C=C\[C@H](C)[C@H](OC(N)=O)[C@@H](C)[C@H](OC(C)=O)[C@@H](C)C/C(C)=C\[C@H](C)[C@@H](O)[C@@H](C)/C=C\[C@@H](O)C[C@@H]1OC(=O)[C@H](C)[C@@H](OC(C)=O)[C@H]1C` was 1150 nM.
